Legend:
[1] = tested on: Echinochloa crus-gaffi (ECHCG); assay: Post-emergence glasshouse test, visual injury, ECHCG; format: in vivo, Echinochloa crus-galli; conditions: 336 h, 14±1 days post application
In short: (§1)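 Plants raised in sandy loam soil were sprayed post-emergence at BBCH 12-14 with compound formulated in acetone/water (50:50) containing 0.5% Tween 20, applied at set rates in g/ha. After 14±1 days in a controlled glasshouse, damage was scored visually as percent injury versus untreated plots.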

[2] = tested on: Ipomoea hederacea (IPOHE); assay: Post-emergence glasshouse test, visual injury, IPOHE; format: in vivo; conditions: Table 4, post-emergence, 14±1 days post application
Description: (§2) Seeds of a variety of test species are grown in a sandy loam soil mixture, Lolium multiflorum (LOLMU), Amaranthus retroflexus (AMARE), Echinochloa crus-gaffi (ECHCG), Veronica persica (VERPE), Glycine max (GLXMA), Oryza sativa (ORYSA), Zea mays (ZEAMX), spring wheat (TRZAS), Ipomoea hederacea (IPOHE), Ipomoea purpurea (PHBPU), Stellaria media (STEME), Solanum nigrum (SOLNI), Digitaria sanguinalis (DIGSA), Setaria italica (SETIT), Alopecurus myosuroides (ALOMY) and Avena fatua (AVEFA).
(§3) After sowing, at growth stage BBCH 12-14 (post-emergence), the plants are sprayed with an aqueous spray solution derived from the formulation of the technical active ingredient in acetone/water (50:50) solution containing 0.5% Tween 20 (polyoxyethlyene sorbitan monolaureate, CAS RN 9005-64-5). The test compounds are applied at the required concentration of active ingredient in g/ha. The test plants are then grown in a glasshouse under controlled environmental conditions and watered regularly as required. After 14±1 days post application (for post-emergence test), the test is evaluated by assessing the percentage damage caused to the plants in comparison with the untreated plots. The biological activities for post-emergence testing are shown below (Table 3 and Table 4) as a % visual injury.

[3] = tested on: Oryza sativa (ORYSA); assay: Post-emergence glasshouse test, visual injury, ORYSA; format: in vivo; conditions: Table 4, post-emergence, 14±1 days post application
Description: as §2, §3

[4] = tested on: Lolium multiflorum (LOLMU); assay: Post-emergence glasshouse test, visual injury, LOLMU; format: in vivo; conditions: 336 h, 14±1 days post application
In short: as §1

[5] = tested on: spring wheat (TRZAS); assay: Post-emergence glasshouse test, visual injury, TRZAS; format: in vivo; conditions: Table 4, post-emergence, 14±1 days post application
Description: as §2, §3

[6] = tested on: Setaria italica (SETIT); assay: Post-emergence glasshouse test, visual injury, SETIT; format: in vivo; conditions: Table 4, post-emergence, 14±1 days post application
Description: as §2, §3

[7] = tested on: Digitaria sanguinalis (DIGSA); assay: Post-emergence glasshouse test, visual injury, DIGSA; format: in vivo; conditions: Table 4, post-emergence, 14±1 days post application
Description: as §2, §3

[8] = tested on: Stellaria media (STEME); assay: Post-emergence glasshouse test, visual injury, STEME; format: in vivo; conditions: Table 4, post-emergence, 14±1 days post application
Description: as §2, §3

[9] = tested on: Veronica persica (VERPE); assay: Post-emergence glasshouse test, visual injury, VERPE; format: in vivo; conditions: 336 h, 14±1 days post application
In short: as §1

[10] = tested on: Alopecurus myosuroides (ALOMY); assay: Post-emergence glasshouse test, visual injury, ALOMY; format: in vivo; conditions: Table 4, post-emergence, 14±1 days post application
Description: as §2, §3

[11] = tested on: Amaranthus retroflexus (AMARE); assay: Post-emergence glasshouse test, visual injury, AMARE; format: in vivo; conditions: 336 h, 14±1 days post application
In short: as §1

[12] = tested on: Zea mays (ZEAMX); assay: Post-emergence glasshouse test, visual injury, ZEAMX; format: in vivo; conditions: Table 4, post-emergence, 14±1 days post application
Description: as §2, §3

[13] = tested on: Glycine max (GLXMA); assay: Post-emergence glasshouse test, visual injury, GLXMA; format: in vivo; conditions: Table 4, post-emergence, 14±1 days post application
Description: as §2, §3

[14] = tested on: Avena fatua (AVEFA); assay: Post-emergence glasshouse test, visual injury, AVEFA; format: in vivo; conditions: Table 4, post-emergence, 14±1 days post application
Description: as §2, §3

[15] = tested on: Ipomoea purpurea (PHBPU); assay: Post-emergence glasshouse test, visual injury, PHBPU; format: in vivo; conditions: Table 4, post-emergence, 14±1 days post application
Description: as §2, §3

[16] = tested on: Solanum nigrum (SOLNI); assay: Post-emergence glasshouse test, visual injury, SOLNI; format: in vivo; conditions: Table 4, post-emergence, 14±1 days post application
Description: as §2, §3

[17] = Table 4, post-emergence, 125 g/ha
[18] = Table 4, post-emergence, 250 g/ha
[19] = Table 4, post-emergence, 1000 g/ha

Compound: Cc1cc(-c2cnc(NCc3ccc(F)cc3)nc2C2CC2)on1 [Compound 16]
- pest or weed control at 500 g/ha ([1]; Table 3, post-emergence): 40%
- pest or weed control at 125 g/ha [1, 17]: 80%
- pest or weed control at 250 g/ha [1, 18]: 70%
- pest or weed control at 500 g/ha ([1]; Table 4, post-emergence): 60%
- pest or weed control at 1000 g/ha [1, 19]: 90%
- IPOHE % visual injury ([2]; 125 g/ha): 40%
- IPOHE % visual injury ([2]; 250 g/ha): 80%
- IPOHE % visual injury ([2]; 500 g/ha): 100%
- IPOHE % visual injury ([2]; 1000 g/ha): 100%
- ORYSA % visual injury ([3]; 125 g/ha): 60%
- ORYSA % visual injury ([3]; 250 g/ha): 90%
- ORYSA % visual injury ([3]; 500 g/ha): 70%
- ORYSA % visual injury ([3]; 1000 g/ha): 60%
- pest or weed control at 500 g/ha ([4]; Table 3, post-emergence): 0%
- pest or weed control at 125 g/ha [4, 17]: 98%
- pest or weed control at 250 g/ha [4, 18]: 90%
- pest or weed control at 500 g/ha ([4]; Table 4, post-emergence): 100%
- pest or weed control at 1000 g/ha [4, 19]: 95%
- TRZAS % visual injury ([5]; 125 g/ha): 30%
- TRZAS % visual injury ([5]; 250 g/ha): 30%
- TRZAS % visual injury ([5]; 500 g/ha): 50%
- TRZAS % visual injury ([5]; 1000 g/ha): 50%
- SETIT % visual injury ([6]; 125 g/ha): 0%
- SETIT % visual injury ([6]; 250 g/ha): 30%
- SETIT % visual injury ([6]; 500 g/ha): 30%
- SETIT % visual injury ([6]; 1000 g/ha): 60%
- DIGSA % visual injury ([7]; 125 g/ha): 90%
- DIGSA % visual injury ([7]; 250 g/ha): 80%
- DIGSA % visual injury ([7]; 500 g/ha): 90%
- DIGSA % visual injury ([7]; 1000 g/ha): 90%
- STEME % visual injury ([8]; 125 g/ha): 100%
- STEME % visual injury ([8]; 250 g/ha): 100%
- STEME % visual injury ([8]; 500 g/ha): 100%
- STEME % visual injury ([8]; 1000 g/ha): 100%
- pest or weed control at 500 g/ha ([9]; Table 3, post-emergence): 95%
- pest or weed control at 125 g/ha [9, 17]: 100%
- pest or weed control at 250 g/ha [9, 18]: 100%
- pest or weed control at 500 g/ha ([9]; Table 4, post-emergence): 100%
- pest or weed control at 1000 g/ha [9, 19]: 100%
- ALOMY % visual injury ([10]; 125 g/ha): 70%
- ALOMY % visual injury ([10]; 250 g/ha): 80%
- ALOMY % visual injury ([10]; 500 g/ha): 80%
- ALOMY % visual injury ([10]; 1000 g/ha): 80%
- pest or weed control at 500 g/ha ([11]; Table 3, post-emergence): 95%
- pest or weed control at 125 g/ha [11, 17]: 100%
- pest or weed control at 250 g/ha [11, 18]: 100%
- pest or weed control at 500 g/ha ([11]; Table 4, post-emergence): 100%
- pest or weed control at 1000 g/ha [11, 19]: 100%
- ZEAMX % visual injury ([12]; 125 g/ha): 60%
- ZEAMX % visual injury ([12]; 250 g/ha): 60%
- ZEAMX % visual injury ([12]; 500 g/ha): 50%
- ZEAMX % visual injury ([12]; 1000 g/ha): 70%
- GLXMA % visual injury ([13]; 125 g/ha): 50%
- GLXMA % visual injury ([13]; 250 g/ha): 40%
- GLXMA % visual injury ([13]; 500 g/ha): 70%
- GLXMA % visual injury ([13]; 1000 g/ha): 50%
- AVEFA % visual injury ([14]; 125 g/ha): 50%
- AVEFA % visual injury ([14]; 250 g/ha): 60%
- AVEFA % visual injury ([14]; 500 g/ha): 60%
- AVEFA % visual injury ([14]; 1000 g/ha): 60%
- PHBPU % visual injury ([15]; 125 g/ha): 80%
- PHBPU % visual injury ([15]; 250 g/ha): 95%
- PHBPU % visual injury ([15]; 500 g/ha): 90%
- PHBPU % visual injury ([15]; 1000 g/ha): 90%
- SOLNI % visual injury ([16]; 125 g/ha): 98%
- SOLNI % visual injury ([16]; 250 g/ha): 99%
- SOLNI % visual injury ([16]; 500 g/ha): 100%
- SOLNI % visual injury ([16]; 1000 g/ha): 100%
